Experimental data published in PubChem BioAssay (NCI).
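Dose response: 5 concentrations. Exposure: 48 h. Format: 96-well plates. Endpoint: linear interpolation; highest concentration if not reached. At the TGI there is no net growth.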

Assays:
Test in all cases: growth of human tumour cells (NCI), 48 h
786-0 renal = system: 786-0 renal
ACHN renal = system: ACHN renal
BT-549 breast = system: BT-549 breast
COLO 205 colon = system: COLO 205 colon
EKVX NSCLC = system: EKVX NSCLC
M14 melanoma = system: M14 melanoma
MDA-N = system: MDA-N
NCI-H460 lung = system: NCI-H460 lung
NCI-H522 lung = system: NCI-H522 lung
OVCAR-8 ovarian = system: OVCAR-8 ovarian
PC-3 prostate = system: PC-3 prostate
SK-OV-3 ovarian = system: SK-OV-3 ovarian
SN12C renal = system: SN12C renal
T-47D breast = system: T-47D breast
UACC-62 melanoma = system: UACC-62 melanoma
UO-31 renal = system: UO-31 renal

SMILES	TGI (786-0 renal) [µM]	TGI (ACHN renal) [µM]	TGI (BT-549 breast) [µM]	TGI (COLO 205 colon) [µM]	TGI (EKVX NSCLC) [µM]	TGI (M14 melanoma) [µM]	TGI (MDA-N) [µM]	TGI (NCI-H460 lung) [µM]	TGI (NCI-H522 lung) [µM]	TGI (OVCAR-8 ovarian) [µM]	TGI (PC-3 prostate) [µM]	TGI (SK-OV-3 ovarian) [µM]	TGI (SN12C renal) [µM]	TGI (T-47D breast) [µM]	TGI (UACC-62 melanoma) [µM]	TGI (UO-31 renal) [µM]
COc1cc(OC)cc(-c2nc3cc(F)ccc3s2)c1	23.5	29.8	24.7	> 100	43.5	> 100	> 100	> 100	45.5	97.8	> 100	31.4	> 100	> 100	41.7	> 100
O=C(Cc1ccccc1)N/N=C/c1ccccc1O	> 100	61	> 100	> 100	> 100	22.8	> 100	57.1	> 100	> 100	> 100	> 100	> 100	> 100	47.9	72.9
COc1cc(/C=C2\N=C(c3ccccc3)N(c3nc4c(OC)ccc(OC)c4s3)C2=O)ccc1O	> 100	> 100	> 100	> 100	> 100	> 100	62	> 100	> 100	> 100	> 100	> 100	> 100	26.4	> 100	> 100
COC(=O)C(COC(C)=O)NC(=O)/C=C/c1ccc(O)c(OC(C)=O)c1 (stereo not drawn)	> 100	> 100	> 100	> 100	> 100	> 100	> 100	> 100	40.4	> 100	> 100	> 100	> 100	> 100	> 100	> 100
Clc1ccc(-c2c(C3=NCCCN3)nnn2-c2ccc(Cl)cc2)cc1	> 77.1	> 100	> 100	32.8	> 100	31.3	39.3	> 75.4	64.3	> 88.2	> 68.4	> 100	> 100	> 59.8	36	90.4
CCOP(=O)(CN1CCNCCNCC1)OCC	> 100	> 100	> 100	> 100	> 100	> 100	> 100	> 100	> 100	> 100	> 100	> 100	> 100	> 100	> 100	> 100
Cc1nn(C(=O)Cc2ccccc2)c2c1C(c1ccc(N(C)C)cc1)SC(N)=N2 (stereo not drawn)	> 100	> 100	> 100	> 100	> 100	> 100	> 100	> 100	> 100	> 100	> 100	> 100	> 100	> 100	> 100	> 100
Cc1cc(=O)n2nc(CN3CCCCC3)sc2n1	> 100	> 100	> 100	> 100	> 100	> 100	> 100	> 100	> 100	> 100	> 100	> 100	> 100	> 100	> 100	> 100
